System: LATS2-pS83 in U251 cells
Experiment: Immunofluorescence, LATS2-pS83 spindle pole signal intensity, U251
Assay type: cell-based, Homo sapiens
Conditions: for centrosomal LATS2-pS83 signal: U251, siRNA 48 h or Aurora-A inhibitor 30 min (250 nM), immunofluorescence
Procedure: As noted in the figures, the following drugs were incubated with cells for 30 min at 37 °C: Aurora-B-i ZM447439 2 µM [10 mM], PLK1-I BI2536 1 µM [10 mM] and Aurora-A-i MLN8237 [5 mM] was used at 250 and 500 nM in U251 and RPE1 cells, respectively. Drugs were resuspended in DMSO to the stock concentrations indicated in square brackets. BI2536 (HY-50698), MLN8237 (HY-10971) and ZM447439 (HY-10128) were all purchased from MedChemExpress. For western blotting, a 20-min pre-treatment with proteasome inhibitor (20 µM MG-132, MerckMillipore, 47490 [20 mM]) was required prior to the addition of DMSO control or kinase inhibitors. This prevented mitotic exit as a consequence of checkpoint override following Aurora-A and Aurora-B inhibitor addition.
siRNA depletion was carried out by reverse transfection using oligofectamine (Thermo Scientific, 12252011) and lipofectamine RNAiMax (Thermo Scientific, 13778075), according to the manufacturer’s instructions, for U251 and RPE1 cells, respectively. For immunofluorescence, 1 × 10^5 cells were seeded in six-well plates and simultaneously transfected with 60 pmol siRNA duplex and 3 µl transfection reagent diluted in 200 µl Opti-MEM serum-free medium. Growth medium was added to a final volume of 2 ml. For western blotting, 1 × 10^6 cells were seeded in 10 cm dishes and transfected with 300 pmol siRNA duplex and 15 µl transfection reagent diluted in 1000 µl Opti-MEM. Growth medium was added to a final volume of 10 ml. Cells were incubated with siRNA for 48 h prior to fixation or harvesting. As a negative control (siControl) Silencer select negative control No.1 siRNA was transfected as above. For TACC3 depletion, where two siRNA duplexes were used, 40 pmol of each was transfected per well.
For siRNA depletion, 1 × 10^5 cells were seeded in six-well plates and transfected as described above for 48 h prior to fixation. For all other experiments, 2.5 × 10^5 cells were seeded in six-well plates and grown for 24 h before fixation. All cells were grown on 12 mm diameter glass coverslips (VWR, 631–1577). Cells in Fig. EV4A were fixed using 4% (wt/v) paraformaldehyde (PFA) in PBS for 12 min, followed by 10 min quenching in 50 mM NH4Cl in PBS and 5 min of permeabilization with 0.2% (v/v) Triton X-100 in PBS, all at room temperature. For centriole staining in Fig. EV4E, cells were fixed in pre-chilled methanol for 10 min at −20 °C, incubated in PBS for 10 min and then 5 min in 0.5% Triton-X-100, 0.5% Tween, 0.05% SDS in PBS (v/v). To observe centromere and kinetochore staining in Fig. 7C and Appendix Fig. S8A, cells were fixed with PTEMF buffer (20 mM PIPES pH 6.8, 0.2% (v/v) Triton X-100, 10 mM EGTA, 1 mM MgCl2, 4% PFA (wt/v) in PBS) for 12 min at room temperature. […]

| Molecule | reduction of p-LATS2 (pS83) intensity (U251, Aurora-A inhibition 30 min, authors' response to referees) | centrosomal LATS2-pS83 signal |
| --- | --- | --- |
| COc1cc(Nc2ncc3c(n2)-c2ccc(Cl)cc2C(c2c(F)cccc2OC)=NC3)ccc1C(=O)O [Alisertib] | > 80% | obliterated |
| 5′-CAAACAACUUGGAAAUCGAtt-3′ [siCEP192] | – | reducing LATS2 phosphorylation |
| 5′-CGGUAGUGAUAAAAGCUCAtt-3′ [siTPX2] | – | reducing LATS2 phosphorylation |
